A short description of series [1]: Cytotoxicity, resazurin staining assay. It is filed as cell-based, human. Conditions: human, 24 h incubation. Here is the method: The cytotoxicity of the compounds was assessed on the three different human cell lines, A549, HEp-2, and HL-60, using the redox-based resazurin staining assay. The cells were seeded in clear 96-well plates at a density of 1 × 10^4 cells per well in a volume of 200 μL per well. The adherent cells were let to attach for 24 h before changing the media and adding the compounds (final concentration of 0.25% DMSO). HL-60 were counted and added to the plates at a density of 1 × 10^4 cells per well in a volume of 200 μL directly with the compounds. Untreated cells were used as negative controls, and cells treated with 1% TritonX-100 (Sigma-Aldrich, St. Louis, MO) were used as positive controls for cytotoxicity. The cells were incubated with the compounds for 24 h.
For the resazurin assay, the media was first removed, and the adherent cells were washed once with PBS. Then, 200 μL of 20 μM resazurin was added per well and cells were incubated for two more hours before the measurement of fluorescence, as mentioned earlier. For HL-60, 10 μL of 400 μM resazurin was added directly to the wells and the cells were incubated for an additional 4 h before the measurement of fluorescence.
For orientation: Resazurin is reduced to fluorescent resorufin, in cell work by metabolically active cells.

Series [2] concerns S. aureus P2. In words: Antibacterial activity, pre-exposure. It is filed as cell-based, Staphylococcus aureus. Conditions: for Average inhibition %, biofilms viability / Average inhibition %, planktonic cells viability / inhibition at 5 µM / inhibition at 10 µM / inhibition at 15 µM / inhibition at 25 µM: S. aureus P2, pre-exposure, ± SD; for MIC / inhibition at 5 µM / inhibition at 10 µM / inhibition at 15 µM / inhibition at 25 µM: Staphylococcus aureus; for MIC: P2, pre-exposure, 18 h. Here is the method: (§1) The antimicrobial activity was assessed in a similar way for the initial screening and the dose–response evaluation against different bacterial strains. With the exception of the post-exposure experiment, the compounds were added to the wells along with the bacteria to test the ability of compounds to prevent bacterial growth and biofilm formation (pre-exposure). The compounds were diluted in DMSO and plated directly in 96-well plates before adding the bacterial culture, and plates were incubated for 18 h under aerobic conditions at 37 °C with shaking (220 rpm). The antibacterial activity of the compounds was assessed on planktonic cells and biofilms separately using two different measurements for each: optical density (turbidity) and resazurin reduction (viability) on planktonic cells and resazurin followed by a crystal violet staining assay (total biomass) on biofilms, as described in the following sections.
(§2) The resazurin staining was performed according to the protocol previously optimized with a few modifications.[46] Briefly, the planktonic solution was first transferred into a new 96-well plate and the OD of the planktonic solution was measured using a Varioskan LUX Multimode microplate reader (Thermo Scientific, Vantaa, Finland). Then, 10 μL of a 400 μM resazurin (R7017, Sigma-Aldrich, St. Louis, MO) diluted in phosphate-buffered saline (PBS) (Thermo Fisher Scientific, MA) was added to the wells (for a final resazurin concentration of 20 μM). The plate was incubated in the dark with shaking (220 rpm) for about 3–10 min at room temperature with S. aureus and A. baumannii (until the bacteria controls turned pink) or for 20 min at 37 °C with P. aeruginosa. Fluorescence was measured at λex = 560 nm and λem = 590 nm using the top optics of the Varioskan LUX Multimode microplate reader. The planktonic plate was then discarded. The original challenge plate containing the biofilms was washed once with PBS, and 200 μL of a 20 μM resazurin solution was added to the wells. The plate was incubated in the dark at 37 °C with shaking (220 rpm) for 30 min with S. aureus, 60 min with A. baumannii, and 90 min with P. aeruginosa. Fluorescence was measured as described for the planktonic solution. The biofilms were next treated with crystal violet staining.
(§3) After removing the resazurin solution from the plate, biofilms were fixed with ethanol 100% for 15 min at room temperature. Ethanol was then removed, and the biofilms were left to air-dry completely at RT. Crystal violet, diluted to 1:100 in deionized water from the 2.3% commercial solution (HT90132, Sigma-Aldrich, St. Louis, MO), was added to the wells and, after a 5 min incubation with the dye, the biofilms were washed twice with deionized water and left to air-dry for about 10 min. The dye was solubilized in ethanol 100% for 1 h, and absorbance was measured at 595 nm using a Multiskan Sky microplate spectrophotometer (Thermo Scientific, Vantaa, Finland).

Series [3] relates to S. aureus ATCC 12598. Description: Antibacterial activity, pre-exposure. In kind it is cell-based, Staphylococcus aureus. Conditions: for Average inhibition %, biofilms viability / Average inhibition %, planktonic cells viability / inhibition at 5 µM / inhibition at 10 µM / inhibition at 15 µM / inhibition at 25 µM: S. aureus ATCC 12598, pre-exposure, ± SD; for inhibition at 5 µM / inhibition at 10 µM / inhibition at 15 µM / inhibition at 25 µM / MIC: Staphylococcus aureus, ATCC12598; for MIC: pre-exposure, 18 h, read-out: MIC S. aureus ATCC 12598. The method, then: as §1, §2, §3

[4] abbreviates: 5 µM, read-out: Average inhibition %, biofilms biomass.
Setting [5] is: 5 µM, read-out: Average inhibition %, planktonic cells turbidity.
Where [6] appears, read: 10 µM, read-out: Average inhibition %, biofilms biomass.
[7] abbreviates: 10 µM, read-out: Average inhibition %, planktonic cells turbidity.
[8] abbreviates: 15 µM, read-out: Average inhibition %, biofilms biomass.
[9] abbreviates: 15 µM, read-out: Average inhibition %, planktonic cells turbidity.
Where [10] appears, read: 25 µM, read-out: Average inhibition %, biofilms biomass.
The mark [11] stands for this setting: 25 µM, read-out: Average inhibition %, planktonic cells turbidity.

≈ marks a conversion by molar mass, not a printed value. Read-outs that look alike come from different tables or passages of the source.

With `CCCCCCCCCCc1ccc(CCC(N)(CO)CO)nc1` [Compound 62, 2-Amino-2-[2-(5-decylpyridin-2-yl)ethyl]propane-1,3-diol], the CC50 – broadly, the concentration that lowers cell viability or growth by half – at 24 h stood at 27.6 ± 6.4 µM in series [1] (A549 cells), 30.9 ± 6.2 µM in series [1] (HEp-2 cells) and 3.6 ± 0.4 µM in series [1] (HL-60 cells).

For `CCCCCCCCc1ccc2nc(CCC(N)(CO)CO)ccc2c1` [Compound 80, 2-Amino-2-[2-(6-octylquinolin-2-yl)ethyl]propane-1,3-diol], the “Average inhibition %, biofilms viability” value in series [2] (5 µM) worked out at 45.2 ± 2.1%; in series [2] (10 µM) it was 99.5 ± 0.1%; in series [2] (15 µM) it was 99.5 ± 0%; in series [2] (25 µM), 99.5 ± 0%; in series [3] (5 µM), 24.6 ± 6.8%; in series [3] (10 µM), 99.2 ± 0.3%. Moreover, the figures for the “Average inhibition %, biofilms viability” value in series [3] (15 µM) and in series [3] (25 µM) were 99.5 ± 0.1% and 99.5 ± 0.2%, respectively. Besides, the “Average inhibition %, planktonic cells viability” value turned out to be 20.6 ± 21.6% in series [2] (5 µM); 99.7 ± 0.2% in series [2] (10 µM); 99.6 ± 0.1% in series [2] (15 µM); 99.5 ± 0.1% in series [2] (25 µM); 7.3 ± 12.6% in series [3] (5 µM); 99.7 ± 0% in series [3] (10 µM). In addition, the “Average inhibition %, planktonic cells viability” value in series [3] (15 µM) and in series [3] (25 µM) was 99.6 ± 0% in each case. Further, the MIC in series [2] and in series [3] was 10 µM (≈ 3.59 µg/mL) throughout. Further, the inhibition – broadly, the relative decrease from the control value, in per cent – at 5 µM in series [2] (setting [4]) stood at 57.3 ± 10.2%; in series [2] (setting [5]), 3.3 ± 5.4%; in series [3] (setting [4]), 34.3 ± 18.8%; in series [3] (setting [5]), 22.7 ± 5.4%. Further, the inhibition at 10 µM in series [2] (setting [6]) was determined as 95.4 ± 2.9%; in series [2] (setting [7]), 99.6 ± 0.1%; in series [3] (setting [6]), 96.5 ± 1%; in series [3] (setting [7]), 99.6%. Besides, the inhibition at 15 µM was determined as 95.3 ± 0.8% in series [2] (setting [8]), 99.3% in series [2] (setting [9]), 93.4 ± 1.2% in series [3] (setting [8]) and 99.5 ± 0.1% in series [3] (setting [9]). The inhibition at 25 µM was determined as 90.6 ± 1% in series [2] (setting [10]), 98.8 ± 0.2% in series [2] (setting [11]), 89.4 ± 0.6% in series [3] (setting [10]) and 98.9 ± 0.3% in series [3] (setting [11]).

In the case of `CCCCCCCCCCc1ccc2nc(CCC(N)(CO)CO)ccc2c1` [Compound 81, 2-Amino-2-[2-(6-decylquinolin-2-yl)ethyl]propane-1,3-diol], the “Average inhibition %, biofilms viability” value in series [2] (5 µM) was found to be 37.3 ± 3.3%; in series [2] (10 µM) it was 99.6 ± 0.1%; in series [2] (15 µM), 99.6 ± 0%; in series [2] (25 µM), 99.6 ± 0%; in series [3] (5 µM) it was 15.6 ± 9.7%; in series [3] (10 µM), 99.4 ± 0%. For the same molecule, the “Average inhibition %, biofilms viability” value in series [3] (15 µM) and in series [3] (25 µM) was 99.7 ± 0.1% throughout. Moreover, the “Average inhibition %, planktonic cells viability” value in series [2] (5 µM) came to 42.9 ± 19.7%; in series [2] (10 µM) it was 99.6 ± 0.2%; in series [2] (15 µM), 99.6 ± 0.1%; in series [2] (25 µM) it was 99.6 ± 0.2%; in series [3] (5 µM) it was 4.2 ± 7.3%; in series [3] (10 µM), 99.7 ± 0%. Also, the entries for the “Average inhibition %, planktonic cells viability” value in series [3] (15 µM) and in series [3] (25 µM) were 99.8 ± 0.1% and 99.6 ± 0.1%, respectively. Besides, the inhibition at 5 µM in series [2] (setting [4]) came out at 48.4 ± 15.7%; in series [2] (setting [5]), 0%; in series [3] (setting [4]) it was 19.1 ± 26.4%; in series [3] (setting [5]) it was 2.1 ± 3.7%. Besides, the inhibition at 10 µM in series [2] (setting [6]) is 96.6 ± 0.4%; in series [2] (setting [7]) it was 99.8 ± 0.1%; in series [3] (setting [6]) it was 96 ± 0.6%; in series [3] (setting [7]), 99.8 ± 0.1%. Also, the inhibition at 15 µM in series [2] (setting [8]) amounted to 94.5 ± 0.6%; in series [2] (setting [9]) it was 99.7 ± 0.1%; in series [3] (setting [8]) it was 93.5 ± 1.8%; in series [3] (setting [9]) it was 99.7 ± 0.1%. Further, the inhibition at 25 µM was found to be 89.1 ± 0.6% in series [2] (setting [10]), 99.2 ± 0.2% in series [2] (setting [11]), 88.7 ± 2% in series [3] (setting [10]) and 99.3 ± 0.2% in series [3] (setting [11]).

For `CCCCCCCCCCc1ccc2nc(CC(N)(CO)CO)ccc2c1` [Compound 83, 2-Amino-2-[(6-decylquinolin-2-yl)methyl]propane-1,3-diol], the minimal inhibitory concentration (MIC) in series [2] and in series [3] was 10 µM (≈ 3.73 µg/mL) throughout.

The record behind these values is PMC8296573, “Synthesis and Biological Evaluation of Fingolimod Derivatives as Antibacterial Agents” (ACS Omega, 2021).
